# Assay results reported in ChEMBL document CHEMBL1649076, “Discovery of 5-chloro-N2-[(1S)-1-(5-fluoropyrimidin-2-yl)ethyl]-N4-(5-methyl-1H-pyrazol-3-yl)pyrimidine-2,4-diamine (AZD1480) as a novel inhibitor of the Jak/Stat pathway” (J Med Chem, 2011).
# Columns and labels:
# [1] = Octanol-water partition coefficient, log D of the compound at pH 7.4 by shake flask method; format: physicochemical
# [2] = Growth inhibition of mouse BA/F3 cells expressing Tel-JAK2 kinase after 48 hrs by MTS assay; format: functional; conditions: BaF3, 48 h
# [3] = test system: Liver microsomes; test: Intrinsic clearance in rat liver microsomes assessed per mg of protein at 2 uM by LCMS/MS analysis; format: ADME, Microsome
# [4] = Observed clearance in Han Wistar rat at 10 mg/kg, po and 3 mg/kg, iv; format: ADME, organism-based; conditions: in vivo
# [5] = Volume of distribution at steady state in Han Wistar rat at 10 mg/kg, po and 3 mg/kg, iv; format: ADME, organism-based; conditions: in vivo, read-out: Vdss
# [6] = Half life in Han Wistar rat at 10 mg/kg, po and 3 mg/kg, iv; format: ADME, organism-based; conditions: in vivo
# [7] = Aqueous equilibrium solubility of the compound at pH 7.4 by HPLC-UV analysis; format: physicochemical
# [8] = Oral bioavailability in Han Wistar rat at 10 mg/kg; format: ADME, organism-based; conditions: in vivo
# [9] = target: T1, Tyrosine-protein kinase JAK3 (Homo sapiens, UniProt P52333); test: Inhibition of JAK3 using 5 mM of ATP
# T1 sequence (P52333 whole entry): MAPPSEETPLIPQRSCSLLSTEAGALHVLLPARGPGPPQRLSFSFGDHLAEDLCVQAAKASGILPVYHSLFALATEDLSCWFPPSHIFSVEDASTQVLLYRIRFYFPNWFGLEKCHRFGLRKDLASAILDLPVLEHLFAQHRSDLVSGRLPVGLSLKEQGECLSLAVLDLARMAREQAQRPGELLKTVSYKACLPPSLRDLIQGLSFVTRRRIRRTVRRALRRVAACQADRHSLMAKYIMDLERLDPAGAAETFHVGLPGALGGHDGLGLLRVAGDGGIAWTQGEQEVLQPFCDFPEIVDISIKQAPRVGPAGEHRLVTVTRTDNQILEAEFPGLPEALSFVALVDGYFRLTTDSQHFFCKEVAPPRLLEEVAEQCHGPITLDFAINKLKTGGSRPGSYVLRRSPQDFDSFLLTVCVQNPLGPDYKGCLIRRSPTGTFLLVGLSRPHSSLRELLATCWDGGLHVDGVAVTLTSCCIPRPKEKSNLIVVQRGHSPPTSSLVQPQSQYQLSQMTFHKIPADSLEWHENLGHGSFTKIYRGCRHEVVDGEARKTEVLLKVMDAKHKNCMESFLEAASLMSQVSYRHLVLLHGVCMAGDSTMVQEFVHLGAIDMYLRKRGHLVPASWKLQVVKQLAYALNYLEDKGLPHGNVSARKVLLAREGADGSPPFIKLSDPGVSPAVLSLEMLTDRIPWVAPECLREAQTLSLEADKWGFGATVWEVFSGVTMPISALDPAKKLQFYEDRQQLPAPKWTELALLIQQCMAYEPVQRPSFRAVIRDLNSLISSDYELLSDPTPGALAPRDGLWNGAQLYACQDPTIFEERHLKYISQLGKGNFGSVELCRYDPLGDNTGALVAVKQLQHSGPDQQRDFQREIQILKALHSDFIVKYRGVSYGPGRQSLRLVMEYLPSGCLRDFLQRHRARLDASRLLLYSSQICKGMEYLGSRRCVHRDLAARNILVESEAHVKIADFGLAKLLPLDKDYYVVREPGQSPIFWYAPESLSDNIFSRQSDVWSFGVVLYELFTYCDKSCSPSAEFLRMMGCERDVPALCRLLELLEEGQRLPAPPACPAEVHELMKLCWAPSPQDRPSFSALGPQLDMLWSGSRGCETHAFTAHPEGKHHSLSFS
# [10] = target: T2, Tyrosine-protein kinase JAK2 (Homo sapiens, UniProt O60674); test: Inhibition of JAK2 using Km ATP concentration
# [11] = target: T2, Tyrosine-protein kinase JAK2; test: Inhibition of JAK2 using 5 mM of ATP
# [12] = Inhibition of Stat5 phosphorylation in mouse Ba/F3 cells expressing EPOR; conditions: BaF3
# T2 sequence (O60674 whole entry): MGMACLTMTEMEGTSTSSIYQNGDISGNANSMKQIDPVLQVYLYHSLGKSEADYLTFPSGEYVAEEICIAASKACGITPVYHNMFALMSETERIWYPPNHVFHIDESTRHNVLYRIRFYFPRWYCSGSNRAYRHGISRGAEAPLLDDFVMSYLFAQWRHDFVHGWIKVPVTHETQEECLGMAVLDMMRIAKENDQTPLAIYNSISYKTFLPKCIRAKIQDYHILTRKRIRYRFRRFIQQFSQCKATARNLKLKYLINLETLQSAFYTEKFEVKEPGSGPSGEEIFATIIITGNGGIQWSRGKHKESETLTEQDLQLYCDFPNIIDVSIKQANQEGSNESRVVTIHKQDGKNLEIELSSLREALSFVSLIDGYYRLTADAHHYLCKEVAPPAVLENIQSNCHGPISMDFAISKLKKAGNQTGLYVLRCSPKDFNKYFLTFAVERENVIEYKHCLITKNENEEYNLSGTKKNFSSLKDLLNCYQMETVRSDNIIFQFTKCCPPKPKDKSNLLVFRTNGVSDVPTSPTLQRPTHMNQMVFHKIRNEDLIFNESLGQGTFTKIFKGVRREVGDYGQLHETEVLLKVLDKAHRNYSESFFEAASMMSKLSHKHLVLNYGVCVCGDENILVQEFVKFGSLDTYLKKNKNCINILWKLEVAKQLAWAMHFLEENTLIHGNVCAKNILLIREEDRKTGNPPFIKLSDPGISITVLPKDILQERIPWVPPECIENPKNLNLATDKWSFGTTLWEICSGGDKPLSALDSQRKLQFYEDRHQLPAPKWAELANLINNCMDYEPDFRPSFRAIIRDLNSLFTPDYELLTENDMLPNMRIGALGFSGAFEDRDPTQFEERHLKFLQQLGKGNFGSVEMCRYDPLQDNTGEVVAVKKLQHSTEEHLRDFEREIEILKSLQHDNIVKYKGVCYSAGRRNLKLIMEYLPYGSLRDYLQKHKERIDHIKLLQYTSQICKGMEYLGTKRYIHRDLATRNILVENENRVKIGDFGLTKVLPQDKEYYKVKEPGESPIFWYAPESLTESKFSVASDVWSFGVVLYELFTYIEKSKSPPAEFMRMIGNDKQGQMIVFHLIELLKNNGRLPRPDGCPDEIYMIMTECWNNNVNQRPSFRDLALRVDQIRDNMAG
logD [1],clearance [3],clearance [4],Vd [5],half-life [6],solubility thermodynamic [7],bioavailability [8],IC50 [9],IC50 [10],IC50 [11],EC50 [12],SMILES,GI50 [2]
< 2.6,10 µL/min/mg,12 mL/min/kg,0.8 L/kg,0.85 h,> 460 µM,100%,5250 nM,,,,Cc1cc(Nc2nc(N[C@@H](C)c3ncc(F)cn3)ncc2F)n[nH]1,230 nM
< 2.6,,,,,> 460 µM,,,3 nM,,,C[C@H](Nc1ncc(F)c(Nc2cc(C3CC3)[nH]n2)n1)c1ncc(F)cn1,250 nM
< 2.6,,,,,> 460 µM,,> 30000 nM,3 nM,108 nM,,COc1cc(Nc2nc(N[C@@H](C)c3ncc(F)cn3)ncc2Cl)n[nH]1,410 nM
< 2.6,,,,,> 460 µM,,,< 3 nM,,,C[C@H](Nc1ncc(Cl)c(Nc2cc(C3CC3)[nH]n2)n1)c1ncc(F)cn1,150 nM
< 2.6,25 µL/min/mg,18 mL/min/kg,2.4 L/kg,1.9 h,> 460 µM,100%,8350 nM,< 3 nM,4 nM,,Cc1cc(Nc2nc(N[C@@H](C)c3ncc(F)cn3)ncc2C)n[nH]1,96 nM
< 2.6,,,,,> 460 µM,,12700 nM,,,39000 nM,Cc1cc(Nc2nc(O[C@@H](C)c3ncc(F)cn3)ncc2Cl)n[nH]1,170 nM
< 2.6,,,,,> 460 µM,,> 30000 nM,,,,Cc1cc(Nc2nc(O[C@H](C)c3ncc(F)cn3)ncc2Cl)n[nH]1,> 10000 nM
< 2.6,,,,,> 460 µM,,> 30000 nM,4 nM,108 nM,,COc1cc(Nc2nc(N[C@@H](C)c3ncc(F)cn3)ncc2Br)n[nH]1,590 nM
< 2.6,,,,,> 460 µM,,4590 nM,< 3 nM,10 nM,,Cc1cc(Nc2nc(N[C@@H](C)c3ncc(F)cn3)ncc2Br)n[nH]1,89 nM
